{
  "source": "patent US9486472B2",
  "about": "“Methods for modulating neuronal responses” (UNIVERSITY OF BRITISH COLUMBIA CANADA, priority 2003, dated 2016)",
  "key": {"hippocampal neurons": {"system": "hippocampal neurons", "assay": "NMDA- or STS-induced apoptosis in cultured hippocampal neurons (Cell Death ELISA, 11-dUTP, PI staining)", "type": "cell-based, rat", "protocol": "Hippocampi were rapidly removed from embryonic E l 8 Sprague Dawley rats and pooled prior to trituration. Hippocampal cell suspensions were plated onto poly-Dlysine coated culture dishes or glass coverslips and grown in Neurobasal™ media 10 (Invitrogen) for 14 days in vitro (DIV). The media from mature 14 DIV neurons was removed and replaced with 100 μM NMDA plus 10 μM glycine for 1 h at 37° C. prior to restoring neurons to the defined growth media. Twenty four hours after NMDA/glycine application, neurons were processed using cell death assays. NMDA-induced [Ca^2+]i responses were evoked and measured using methods described previously^26.\nApoptosis quantification: NMDA-induced apoptosis was quantified either using a Cell Death Detection Elisa Plus Kit (Roche Applied Sciences), which is based on the in vitro determination of cytoplasmic histone-associated DNA fragments, or using TdT mediated addition of biotinylated 11-dUTP to the free 3′-OH ends of DNA. Absorbance readings for both assays were carried out using a microplate reader.\nPropidium Iodide (PI) staining of nuclei: After the induction of apoptosis, cells were fixed with 4% parafonnaldehyde/4% sucrose for 10 min followed by ice cold acetone for 1 min, and then stained with […] PI in Dulbecco's PBS for 30 min. Stained coverslips were mounted onto glass slides and viewed with a Leica fluorescence microscope to identify condensed nuclei. Cells with condensed nuclei were counted as apoptotic and the percentage of apoptotic cells to the total number of cells was calculated to give a semi-quantitative analysis, expressed as percentage of apoptosis.\nA short peptide (YKEGYNVYGIE (SEQ ID NO. 2)) corresponding to amino acid residues from 869 to 879 of the C-terminus of GluR2 (R2-CT) was synthesized and incubated with a carrier protein (Pep-1)23 at a ratio of 1:20 in Dulbecco's modified Eagle's medium\n(§1) (DMEM, Gibco) at 37° C. in a humidified atmosphere containing 5% CO2 for 30 min to allow the formation of R2-CT/Pep-1 complex. Hippocampal neurons (DW 12-14) were then overlaid with the preformed complex to reach a final R2-CT concentration of 1 μM and further incubated for 1 h before experiments commenced. Receptor Trafficking Assays"}, "AMPA receptor [1]": {"system": "AMPA receptor", "assay": "Cell-ELISA of cell-surface AMPA receptors after NMDA treatment, hippocampal neurons", "type": "cell-based, rat", "conditions": "100 μM NMDA + 10 μM glycine 1 h; R2-CT delivered with Pep-1 one hour prior to and during NMDA", "protocol": "as §1\nCell ELISA assay: Quantification of cell-surface AMPA or NMDA receptors was performed by a colorimetric cell-ELISA assay essentially as described previously^14. Briefly, hippocampal neurons were treated with 100 μM NMDA plus 10 μM glycine for 1 h and then fixed with 4% paraformaldehyde/4% sucrose in PBS for 10 min. Half of the cells in each treatment condition were then permeabilized with 0.1% Triton-X 100 for 5 min. Receptors on the plasma membrane surface and the total cellular pool were then determined by incubating the cells with monoclonal antibodies against the extracellular domains of GluR2 or NR1 (Chemicon, 1 μg/ml) overnight at 4° C., followed by incubation with HRP-conjugated anti-mouse IgG secondary antibody (1:1000, Amersham Life Sciences) for 1 h at room temperature. Following extensive washing with PBS, cells were incubated with OPD substrate (Sigma) for approximately 10 min. Reactions were stopped with 0.2 volumes of 3N HCl, and absorbance at 492 nm was read using a spectrophotometric microplate reader."}, "AMPA receptor [2]": {"system": "AMPA receptor", "assay": "OGD-induced decrease of cell-surface AMPA receptors (Cell-ELISA), cultured cortical neurons", "type": "cell-based", "conditions": "GluR2CT peptide (1 mM) with PEP-1, one hour before OGD", "protocol": "(§2) Ischemia-like insult was mimicked by oxygen and glucose deprivation (OGD) for one hour in cultured cortical neurons (DIV 12-14). OGD is a well-characterized cell culture model of ischemia. GluR2CT peptide (1 mM) was delivered into neurons by mixing it with the carrier peptide PEP-1 and incubating neurons with the mixture for one hour before OGD challenge. […] (n=6; *: P<0.05, Student's test, compared with Control)."}, "[3]": {"system": "cultured cortical neurons", "assay": "OGD-induced neuronal apoptosis (Cell Death Detection ELISAplus), GluR2-CT with PEP-1", "type": "cell-based", "conditions": "GluR2CT peptide (1 mM) with PEP-1, one hour before OGD; 24 hr after OGD", "protocol": "as §2"}, "[4]": {"system": "CA1 neurons in hippocampal slices", "assay": "Insulin-induced depression of AMPA receptor-mediated EPSCs, whole-cell recording of CA1 neurons", "type": "cell-based, rat", "conditions": "100 μg/ml in recording pipette; insulin 0.5 μM in bath", "protocol": "GST-GluR23Y and GST-GluR23A were constructed by subcloning corresponding PCR fragments into pGEX 4T-1 vectors. GST fusion proteins were expressed in DH5α E. coli and purified from bacterial lysates according to the manufacturer's protocol (Pharmacia). Products were dialyzed in PBS and concentrated using Microcon-10 columns (Amicon) for intracellular application during whole-cell recordings.\nHippocampal slices (400 μm thickness) were prepared from Sprague-Dawley rats aged 16-26 postnatal days and perfused at room temperature with artificial cerebrospinal fluid containing (mM): 126 NaCl, 26 NaHCO3, 10 glucose, 3 KCl, 1.2 KH2PO4, 1 MgCl2, and 1 CaCl2, saturated with 95% O2/5% CO2^14. The recording pipettes (4-5 MO) were filled with solution containing (mM): 135 CsCl, 10 HEPES, 5 QX-314, 4 Mg-ATP, 2 MgCl2, 0.5 EGTA, 0.2 GTP and 0.1 CaCl2, pH 7.4, 310 mOsm. Whole-cell recording of CA1 neurons and the induction of LFS-LTD were performed as previously described.^14 […]"}, "[5]": {"system": "CA1 neurons in hippocampal slices", "assay": "LFS-induced hippocampal CA1 long-term depression (LTD)", "type": "cell-based, rat", "conditions": "postsynaptic application, 100 μg/ml; 1 Hz for 15 min", "protocol": "Hippocampal slices (400 μm thickness) were prepared from Sprague-Dawley rats aged 16-26 postnatal days and perfused at room temperature with artificial cerebrospinal fluid containing (mM): 126 NaCl, 26 NaHCO3, 10 glucose, 3 KCl, 1.2 KH2PO4, 1 MgCl2, and 1 CaCl2, saturated with 95% O2/5% CO2^14. The recording pipettes (4-5 MO) were filled with solution containing (mM): 135 CsCl, 10 HEPES, 5 QX-314, 4 Mg-ATP, 2 MgCl2, 0.5 EGTA, 0.2 GTP and 0.1 CaCl2, pH 7.4, 310 mOsm. Whole-cell recording of CA1 neurons and the induction of LFS-LTD were performed as previously described.^14\nThe level of GluR2 tyrosine phosphorylation was assayed following low-frequency stimulation (LFS) of hippocampal slices (1 Hz for 15 min, which reliably induces LTD under our experimental conditions), to determine whether tyrosine phosphorylation of GluR2 CT may be required for LFS-induced long term depression (LTD). Slices were homogenized in denaturing buffer 10 min after the stimulation and GluR subunits were immunoprecipitated and probed for phosphotyrosine. […] Induction of LTD by LFS was blocked by postsynaptic application of GST-GluR23Y (100 μg/ml), but not by the mutant peptide GST-GluR23A (100 μg/ml; FIG. 10B) or by GST-GluR2834-843 (FIG. 10C)."}, "pp60 c-Src": {"molecular_target": "pp60 c-Src (Homo sapiens, UniProt P12931)", "assay": "In vitro kinase assay with active recombinant Src", "type": "biochemical", "conditions": "GST fusion protein as substrate", "excerpt": "FIGS. 7 A-D. Insulin increases phosphorylation of tyrosine residues within the GluR2 carboxyl terminal (CT) region. A. In vitro tyrosine phosphorylation of the GluR2 CT. GST fusion proteins of the GluR1 CT (GST-GluR1CT), the GluR2 CT (GST-GluR2CT), residues 869-876 (YKEGYNVYG (SEQ ID NO. 4)) of the GluR2 CT (GST-GluR23Y), which contains a cluster of three tyrosine residues (Y869, Y873, and Y876) and the same amino acid stretch of the GluR2 CT with its tyrosine residues replaced by alanines (GST-GluR23A), along with the GST back bone (GST) as control, were incubated in the absence (−) or presence (+) of active recombinant pp60 c-Src. Phosphorylation products were immunoblotted using an anti-phosphotyrosine antibody (top panel). […] B. Expression levels of HA-GluR2 and HA-GluR23Y-3A (where tyrosines 869, 873 and 876 were mutated to alanines) 48 h after transient transfection into HEK293 cells were determined by a cell ELISA assay using permeabilized cells. C. HEK293 cells transiently transfected with HA-GluR1, HA-GluR2 or HA-GluR23Y-3A, along with empty vector (mock transfection) as control. Forty-eight hours later, the cells were treated with or without 0.5 μM insulin for 10 min. The lysates were then subjected to immunoprecipitation with an anti-HA antibody under denaturing conditions and immunoblotting with an anti-phosphotyrosine antibody (Top blot; IB: PY). […]"}, "[6]": {"system": "AMPA receptor (wild type GluR2)", "assay": "Colorimetric cell-ELISA receptor internalization assay, HEK293 cells expressing GluR2", "type": "cell-based, rat", "conditions": "insulin 0.5 μM, 10 min; approximately 25% without insulin", "excerpt": "Rat HA-tagged GluR1 and GluR2 receptor subunit cDNAs have been described previously^14. Constructs of HA-GluR2 carboxyl internal deletion or truncation mutants were made by standard PCR methods. The HA-GluR23Y-3A mutant was made using a Quick-Change Site Directed Mutagenesis Kit (Stratagene). HEK293 cells (ATCC) were transfected using the calcium phosphate precipitation method. Thirty six to forty eight hours after transfection, cells were washed with extracellular recording solution (ECS in mM: 140 NaCl, 33 glucose, 25 HEPES, 5.4 KCl, 1.3 CaCl2; pH 7.4, 320 mOsm) and incubated in ECS for at least one hour (serum starvation). […]\nThe ability of these mutants to undergo both constitutive and regulated endocytosis was assayed as described previously.^14 Surface receptors in live cells were pre-labelled with an anti-HA antibody (or an antibody against the extracellular N-terminal domain of GluR2 in the case of GluR2Δ854) at 4° C. […] Internalised receptors were then visualised by confocal microscopy and quantitated by colorimetric cell-ELISA-based receptor internalization assays (FIG. 6A). […] Transfected cells were pre-labeled with anti-HA antibody and then receptor endocytosis was evaluated under basal conditions (constitutive endocytosis) or following insulin stimulation (0.5 μM, 10 min; regulated endocytosis). […]"}},
  "data": [
    {"substance": "YKEGYNVYGIE [R2-CT, short peptide corresponding to amino acid residues 869 to 879 of the C-terminus of GluR2]", "values": [
      {"measurement": "NMDA-induced apoptosis, peptide or carrier alone", "setting": "hippocampal neurons; R2-CT alone or Pep-1 alone", "value": "neither R2-CT nor Pep-1 alone had any detectable effect"},
      {"measurement": "STS-induced neuronal apoptosis", "setting": "hippocampal neurons; staurosporine 100 nM, 1 h", "value": "did not alter STS-induced neuronal apoptosis"},
      {"measurement": "NMDA-induced reduction of cell-surface AMPA receptors", "setting": "AMPA receptor [1]", "value": "prevented"},
      {"measurement": "OGD-induced decrease in cell-surface AMPA receptor expression", "setting": "AMPA receptor [2]", "value": "reduced the OGD-induced decrease in cell-surface AMPA receptor expression"},
      {"measurement": "OGD-induced neuronal death", "setting": "[3]", "value": "largely prevented"}
    ]},
    {"substance": "GSTYKEGYNVYG [GST-GluR23Y, GST fusion protein of the nine amino-acid GluR2 CT stretch with three tyrosines]", "values": [
      {"measurement": "insulin-induced EPSC depression", "setting": "[4]", "value": "prevented"},
      {"measurement": "induction of LTD by LFS", "setting": "[5]", "value": "blocked"},
      {"measurement": "tyrosine phosphorylation by recombinant Src kinase", "setting": "pp60 c-Src", "value": "phosphorylated"}
    ]},
    {"substance": "insulin: human recombinant insulin (Sigma)", "values": [
      {"measurement": "cell-surface receptors endocytosed within 30 min", "setting": "[6]", "value": 48, "unit": "%"}
    ]}
  ]
}
